Results from PubChem BioAssay (NCI).
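Cells were grown in 96-well plates and exposed to each compound for 48 hours at five concentrations; endpoints were interpolated linearly between bracketing concentrations, or set to the highest concentration if not reached. GI50: concentration for 50% inhibition of growth. TGI marks complete inhibition of growth.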

Assays:
Assay in all cases: inhibition of tumour cell growth, NCI panel, 48 h
OVCAR-8 ovarian = tested on: OVCAR-8 ovarian
NCI-H460 lung = tested on: NCI-H460 lung
M14 melanoma = tested on: M14 melanoma
HOP-62 NSCLC = tested on: HOP-62 NSCLC
SK-MEL-5 melanoma = tested on: SK-MEL-5 melanoma
IGROV1 ovarian = tested on: IGROV1 ovarian
HCT-15 colon = tested on: HCT-15 colon
CCRF-CEM leukemia = tested on: CCRF-CEM leukemia
SR leukemia = tested on: SR leukemia
MDA-MB-435 = tested on: MDA-MB-435

SMILES | TGI (OVCAR-8 ovarian) | TGI (NCI-H460 lung) | TGI (M14 melanoma) | TGI (HOP-62 NSCLC) | TGI (SK-MEL-5 melanoma) | TGI (IGROV1 ovarian) | TGI (HCT-15 colon) | TGI (CCRF-CEM leukemia) | TGI (SR leukemia) | TGI (MDA-MB-435) | GI50 (OVCAR-8 ovarian) | GI50 (NCI-H460 lung) | GI50 (SK-MEL-5 melanoma) | GI50 (MDA-MB-435) | GI50 (IGROV1 ovarian) | GI50 (HOP-62 NSCLC) | GI50 (HCT-15 colon) | GI50 (CCRF-CEM leukemia) | GI50 (M14 melanoma)
CC1=C(O)/C(=C/C(C)CCC/C(C)=C/C=C/C(C)CCCc2ccoc2)OC1=O (stereo unspecified) | > 100 µM | > 100 µM | > 100 µM | 59.6 µM |  |  |  |  |  |  |  |  |  |  |  |  |  |  | 
N#CC1(C#N)C2C=CC(c3coc4cccc2c34)C1(C#N)C#N (stereo unspecified) | 10.4 µM | 37.4 µM | 25.3 µM | 46.5 µM | 28.8 µM | 35.9 µM | 19.2 µM | 6.71 µM | 7.83 µM |  |  |  |  |  |  |  |  |  | 
O=C(N/N=C1\C(=O)N(c2nccs2)C(=O)C(=O)C1c1nc2ccccc2s1)c1ccccc1O (stereo unspecified) | > 100 µM | > 100 µM | > 100 µM | 90.4 µM | > 100 µM | > 100 µM | > 100 µM | > 100 µM |  |  |  |  |  |  |  |  |  |  | 
CCOC(=O)C(CC/C=C\c1ccccc1)N1CCC[C@H]1C(=O)OC (stereo partly specified) | > 100 µM | > 100 µM | > 100 µM | > 100 µM | > 100 µM | > 100 µM |  | > 100 µM | > 100 µM |  |  |  |  |  |  |  |  |  | 
O=C1OC(=O)C2CCCC3CCCC1C32 (stereo unspecified) | > 100 µM | > 100 µM | > 100 µM | > 100 µM | > 100 µM | > 100 µM | > 100 µM | > 100 µM |  | > 100 µM |  |  |  |  |  |  |  |  | 
CCOC(=O)c1cc(-c2ccccc2)[nH]c1N/N=C/c1ccc(Cl)cc1 | > 100 µM | > 100 µM |  | > 100 µM | > 100 µM | > 100 µM | > 100 µM | > 100 µM |  | > 100 µM | > 100 µM | 58.1 µM | 28.4 µM | > 100 µM | 95.2 µM | 87.3 µM | 49.3 µM | 5.86 µM | 
O=NNc1ccc(Sc2ccc(NN=O)cn2)nc1 | > 100 µM | > 100 µM | > 100 µM | > 100 µM | > 100 µM | > 100 µM | > 100 µM | > 100 µM | > 100 µM |  |  |  |  |  |  |  |  |  | 
CCOC(=O)c1cnc2sc3ccc4ccccc4c3n2c1=O | > 100 µM | > 100 µM | > 100 µM | > 100 µM | > 100 µM | > 100 µM | > 100 µM | 82.6 µM | > 100 µM |  |  |  |  |  |  |  |  |  | 
O=C(O)c1c(=O)cccc2ssc12 | 3.18 µM | 4.13 µM | 4.07 µM | 3.44 µM | 5.85 µM | 5.91 µM | 3.52 µM |  |  | 3.75 µM | 1.76 µM | 1.96 µM | 2.41 µM | 1.93 µM | 2.39 µM | 1.81 µM | 1.73 µM |  | 1.92 µM
C=C(CO)[C@@H]1CC[C@]2(COC3CCCCO3)CC[C@]3(C)[C@H](CC[C@@H]4[C@@]5(C)C=C(C=O)C(=O)C(C)(C)[C@@H]5CC[C@]43C)[C@@H]12 (stereo partly specified) | 1.44 µM | 1.75 µM | 0.672 µM | 3.23 µM | 1.46 µM | 0.515 µM | 0.718 µM | 1.12 µM |  | 0.494 µM | 0.356 µM | 0.5 µM | 0.38 µM | 0.214 µM | 0.231 µM | 1.51 µM | 0.247 µM | 0.211 µM | 0.247 µM
